Data: patent publication US6727277B1, “Compounds affecting cholesterol absorption” (Kansas State University Research Foundation, priority 2002, dated 2004)

Tests used:
[1] = tested on: lymphatic absorption of cholesterol; test: Lymphatic absorption of 14C-cholesterol in lymph-cannulated rats infused with lipid emulsion; format: in vivo, rat
Experimental: (§1) Ten male Sprague-Dawley rats (Harlan Sprague Dawley, Inc., Indianapolis, Ind.) weighing 274.3±7.8 grams were housed individually in plastic cages in an environmentally controlled room of illumination (12:12-h light/dark cycle with the dark period from 0330 to 1530), humidity (60-70%), and temperature (22-25° C.) throughout the study. Rats had free access to deionized water and a nutritionally adequate diet (Table 1) containing soybean oil as the fat source and egg white as the protein source. The diet was formulated according to AIN-93G recommendations (In: Trace Elements in Laboratory Rodents (Watson, R. R., ed.), pp. 3-37. CRC Press, Boca Raton, Fla.). Animals were cared for in an animal care facility accredited by the American Association for the Accreditation of Laboratory Animal Care. Rats were maintained in accordance with the policies and guidelines for animal care and use procedures of the Kansas State University Institutional Animal Care and Use Committee.
At 6 wk, rats were starved overnight for 17 h but allowed water ad libitum prior to the surgical placement of a lymph cannula and duodenal infusion catheter. The mesenteric lymph duct was cannulated as described in Koo et al., J. Nutr. 131: 717-722 (2001). Briefly, while rats were under anesthesia (2.0% halothane in 2.0 L O2/min delivered via a halothane vaporizer), a midline abdominal incision was made. […] The cannula was fixed in place with ethyl cyanoacrylate glue (Elmer's Products, Columbus, Ohio) and externalized through the right flank. An indwelling infusion catheter (Silastic® laboratory tubing, i.d. 1.0 mm, o.d. 2.2 mm; Dow Coming, Midland, Mich.) was introduced via the gastric fundus into the upper duodenum and secured in place with a purse-string suture (4-0 Silk, Ethicon, Somerville, N.J.) around the fundic incision. The infusion catheter was exteriorized alongside the lymph cannula. After the abdominal incision was closed, the rats were placed in restraining cages and housed in a recovery chamber at 30° C. for postoperative recovery for 22-24 h. During the recovery period, rats were infused continuously with glucose in phosphate buffered saline (PBS) (in mmol/L: 277 glucose, 6.75 Na2HPO4, 16.5 NaH2PO4, 115 NaCl, and 5 KCl; pH 6.7) v infusion catheter at 3.0 mL/h by a syringe pump (Harvard Apparatus, Model 935, South Natick, Mass.) to ensure adequate hydration and nutritional status of the animals.
After postoperative recovery, each rat was infused with a lipid emulsion at 3 mL/h for 8 h via the duodenal catheter in subdued light. The lipid emulsion consisted of 451.8 μmol triolein (95%, Sigma Chemical, St. Louis, Mo.), 33.3 kBq [4-^14C]-cholesterol (^14C-CH; specific activity, 1.85 GBq/mmol, American Radiolabeled Chemicals, St. Louis, Mo.), 20.7 μmol cholesterol, 3.1 μmol α-tocopherol (all-rac-dl-α-tocopherol, 97%, Aldrich Chemical, Milwaukee, Wis.) as an antioxidant, and 396.0 μmol sodium taurocholate (Sigma Chemical, St. Louis, Mo.) in 24 mL of PBS buffer, pH 6.5. For half of the rats, the lipid emulsion contained 114.9 μmol compound 1 (41.9 mg). Lipid emulsion was prepared under a gentle N2 stream and subdued light for 55 min using a microprocessor-controlled ultrasonicator equipped with a microtip (XL-2020 Ultrasonic Liquid Processor, Misonix, Farmingdale, N.Y.).
(§2) During the duodenal infusion of lipid emulsion, lymph samples were collected hourly in preweighed ice-chilled centrifuge tubes containing 4 mg Na2-EDTA and 30 μg n-propyl gallate (Sigma Chemical, St. Louis, Mo.) as antioxidants. A portion of each lymph sample (100 μL) was mixed with scintillation liquid (ScintiVerse; Fisher Scientific, Fair Lawn, N.J.) and counted by scintillation spectrometry (Beckman LS-6500; Beckman Instruments, Fullerton, Calif.). The total ^14C-radioactivity appearing in hourly lymph volume (the hourly rates of ^14C-CH absorption) was expressed as a percentage of the total radioactivity infused (% dose). All samples were ice chilled and handled in subdued light. […]

[2] = tested on: lymphatic absorption of oleic acid; test: Lymphatic absorption of oleic acid (triolein) in lymph-cannulated rats, fatty acid analysis of lymph; format: in vivo, rat
Experimental: as §1, with “Animals were cared for in an animal care facility accredited by the American Association for the Accreditation of Laboratory Animal Care. Rats were maintained in accordance with the policies and guidelines for animal care and use procedures of the Kansas State University Institutional Animal Care and Use Committee.” left out
as §2, with “dose).” for “dose). All samples were ice chilled and handled in subdued light.”

Sprague-Dawley rats = test: Observation of behaviour and visual examination of organs of infused rats; format: in vivo, rat
Description: Rats were sacrificed at the day end of the infusion, and the intestine and other organs were dissected and visually examined.

[3] = tested on: cholesterol ester transfer protein (CETP); test: CETP activity, crude CETP preparation derived from hamster plasma; format: biochemical; conditions: in vitro
Experimental: The inhibitory effect of compound 1 on the activity of cholesterol ester transfer protein (CETP) was measured, using a crude CETP preparation derived from hamster plasma.

[4] = biological target: T1, cholesterol ester transfer protein (CETP) (Homo sapiens, UniProt P11597); test: Inhibition of CETP, purified CETP preparation; format: biochemical; conditions: FIG. 3, FIG. 4
T1 sequence (P11597 18-493): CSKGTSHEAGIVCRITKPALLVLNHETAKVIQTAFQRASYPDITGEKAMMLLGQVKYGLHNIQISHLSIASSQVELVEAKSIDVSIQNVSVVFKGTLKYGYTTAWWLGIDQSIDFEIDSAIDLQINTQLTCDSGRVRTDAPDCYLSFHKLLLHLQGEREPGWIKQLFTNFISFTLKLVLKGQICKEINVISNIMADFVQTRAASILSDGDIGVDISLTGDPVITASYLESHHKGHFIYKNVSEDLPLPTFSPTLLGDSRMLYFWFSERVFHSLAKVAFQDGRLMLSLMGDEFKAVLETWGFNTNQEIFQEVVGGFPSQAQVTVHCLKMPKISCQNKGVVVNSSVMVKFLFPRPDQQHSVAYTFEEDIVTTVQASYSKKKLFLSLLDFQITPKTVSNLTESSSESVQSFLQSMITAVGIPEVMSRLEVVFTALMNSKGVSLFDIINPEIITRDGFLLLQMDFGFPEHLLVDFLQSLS
Experimental: The effect of compound 24 on inhibition of CETP was tested using a purified CETP preparation. CETP was purified and assayed according to procedures described in Tomada, H.; Tabata, N.; Shinose, M.; Takahashi Y.; Woodruff, H. B.; Omura, S. J. Antibiotics, 52: 1101-1107 (1999).

[5] = rats, 8 h duodenal infusion of lipid emulsion with 114.9 μmol (41.9 mg) compound 1, means ± SD, n = 5

Structure (SMILES)	14C-cholesterol absorbed, cumulative ([1]; 1 h, rats, means ± SD, n = 5)	14C-cholesterol absorbed, cumulative ([1]; 2 h, rats, means ± SD, n = 5)	14C-cholesterol absorbed, cumulative ([1]; 3 h, rats, means ± SD, n = 5)	14C-cholesterol absorbed, cumulative ([1]; 4 h, rats, means ± SD, n = 5)	14C-cholesterol absorbed, cumulative ([1]; 5 h, rats, means ± SD, n = 5)	14C-cholesterol absorbed, cumulative ([1]; 6 h, rats, means ± SD, n = 5)	14C-cholesterol absorbed, cumulative ([1]; 7 h, rats, means ± SD, n = 5)	14C-cholesterol absorbed, cumulative ([1]; 8 h, rats, means ± SD, n = 5)	percent cholesterol absorption ([1]; after 8 hours of treatment, 41.9 mg of compound 1, control 37.69%)	total cholesterol absorption compared to control rats ([1]; rats infused for eight hours)	14C-CH absorption [1, 5]	absorption of triolein compared to control rats ([2]; rats infused for eight hours)	Oleic acid absorbed in lymph [2, 5]	abnormalities of intestine and other organs, visual examination (Sprague-Dawley rats; rats sacrificed at end of infusion)	gross motor or behavioral abnormalities (Sprague-Dawley rats; rats, 8 h infusion)	dose above which HDL total cholesterol, HDL free cholesterol and HDL cholesterol ester increased [3]	IC50 [4]
CC1(C)CCC[C@]2(C)C3=Cc4c(cc(O)c(O)c4Cl)O[C@]3(C)CC[C@@H]12 [Compound 1, (4aS,6aR,12bS)-2H-11-Chloro-1,3,4,4a,5,6,6a,12b-octahydro-4,4,6a,12b-tetramethyl-benzo[a]xanthene-9,10-diol]	0.12 ± 0.04 % dose	1.22 ± 0.25 % dose	2.70 ± 0.42 % dose	4.18 ± 0.92 % dose	5.68 ± 1.37 % dose	7.32 ± 1.78 % dose	9.13 ± 2.41 % dose	10.95 ± 3.29 % dose	10.95%	significantly less	10.95 ± 3.29 % dose/8 h	significantly less	253 ± 79 μmol/8 h	No abnormalities were found	no gross motor or behavioral abnormalities	exceeded 250 μM	–
CC1(C)CCC[C@]2(C)C3=CC4=C(Cl)C(=O)C(=O)C=C4O[C@]3(C)CC[C@@H]12 [Compound 24, (4aS,6aR,12aR,12bS)-2H-11-Chloro-1,3,4,4a,5,6,6a,9,10,12b-decahydro-4,4,6a,12b-tetramethyl-benzo[a]xanthene-9,10-dione]	–	–	–	–	–	–	–	–	–	–	–	–	–	–	–	–	31 µM
C=Cc1ccc(OC(=O)c2ccc(O)c(N=O)c2)cc1.C=Cc1ccc(OC(=O)c2ccc(O)c(N=O)c2)cc1.C=Cc1ccc(OC(=O)c2ccc(O)c(N=O)c2)cc1.[Fe+2] [Ferroverdin A, reference compound]	–	–	–	–	–	–	–	–	–	–	–	–	–	–	–	–	~22 µM
